This experiment has as its system P388 leukemia ip, CD2F1 mice, survival T/C. Briefly: NCI In Vivo Anticancer Drug Screen. Data for tumor model P388 Leukemia (intraperitoneal) in CD2F1 (CDF1) mice. The settings on record: endpoint: median survival time, higher = longer survival. Summed up:
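Mice carrying the transplanted tumor received test compound or vehicle. Survival was recorded in each group, and the value is the treated-group measurement divided by that of the vehicle-treated control group.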

[1] abbreviates: dose: 100.0 mg/kg/injection, schedule: Q04DX003 (ip), vehicle: saline with Tween-80.
The mark [2] stands for this setting: dose: 200.0 mg/kg/injection, schedule: Q04DX003 (ip), vehicle: saline with Tween-80.
The mark [3] stands for this setting: dose: 60.0 mg/kg/injection, schedule: Q01DX005 (ip), vehicle: saline with Tween-80.
[4] abbreviates: dose: 120.0 mg/kg/injection, schedule: Q01DX005 (ip), vehicle: saline with Tween-80.
The mark [5] stands for this setting: dose: 240.0 mg/kg/injection, schedule: Q01DX005 (ip), vehicle: saline with Tween-80.
Where [6] appears, read: dose: 50.0 mg/kg/injection, schedule: Q01DX005 (ip), vehicle: Klucel (hydroxypropylcellulose) (HPC).
Where [7] appears, read: dose: 100.0 mg/kg/injection, schedule: Q01DX005 (ip), vehicle: Klucel (hydroxypropylcellulose) (HPC).
[8] abbreviates: dose: 200.0 mg/kg/injection, schedule: Q01DX005 (ip), vehicle: Klucel (hydroxypropylcellulose) (HPC).
Setting [9] is: dose: 50.0 mg/kg/injection, schedule: Q01DX005 (ip), vehicle: saline with Tween-80.
[10] abbreviates: dose: 100.0 mg/kg/injection, schedule: Q01DX005 (ip), vehicle: saline with Tween-80.
Setting [11] is: dose: 200.0 mg/kg/injection, schedule: Q01DX005 (ip), vehicle: saline with Tween-80.
[12] abbreviates: dose: 1.56 mg/kg/injection, schedule: Q01DX009 (ip), vehicle: saline.
The mark [13] stands for this setting: dose: 3.12 mg/kg/injection, schedule: Q01DX009 (ip), vehicle: saline.
Where [14] appears, read: dose: 50.0 mg/kg/injection, schedule: Q01DX009 (ip), vehicle: Klucel (hydroxypropylcellulose) (HPC).
[15] abbreviates: dose: 100.0 mg/kg/injection, schedule: Q01DX009 (ip), vehicle: Klucel (hydroxypropylcellulose) (HPC).
The mark [16] stands for this setting: dose: 200.0 mg/kg/injection, schedule: Q01DX009 (ip), vehicle: Klucel (hydroxypropylcellulose) (HPC).
The mark [17] stands for this setting: dose: 60.0 mg/kg/injection, schedule: Q01DX005 (ip), vehicle: Klucel (hydroxypropylcellulose) (HPC).
Setting [18] is: dose: 120.0 mg/kg/injection, schedule: Q01DX005 (ip), vehicle: Klucel (hydroxypropylcellulose) (HPC).
The mark [19] stands for this setting: dose: 240.0 mg/kg/injection, schedule: Q01DX005 (ip), vehicle: Klucel (hydroxypropylcellulose) (HPC).
Where [20] appears, read: dose: 25.0 mg/kg/injection, schedule: Q01DX005 (ip), vehicle: Klucel (hydroxypropylcellulose) (HPC).

Where “and” joins values, the source holds several entries; their conditions need not be identical. Equal entries are not always repeated. Toxic doses and inconclusive results are not listed.

As for `CCc1nc(-c2ccccc2)c(-c2ccccc2)[nH]1`, the T/C under setting [1] was 90 % of control; the T/C under setting [2] is 90 % of control; the T/C (dose: 400.0 mg/kg/injection, schedule: Q04DX003 (ip), vehicle: saline with Tween-80) is 95 % of control.
As to `c1ccc(N=c2cnc3c(ccc4ccccc43)o2)cc1`, the T/C is, setting by setting: (dose: 3.75 mg/kg/injection, schedule: Q01DX005 (ip), vehicle: saline with Tween-80) 102 % of control; (dose: 7.5 mg/kg/injection, schedule: Q01DX005 (ip), vehicle: saline with Tween-80) 112 % of control; (dose: 15.0 mg/kg/injection, schedule: Q01DX005 (ip), vehicle: saline with Tween-80) 107 % of control and 116 % of control; under setting [3], 115 % of control.
As to `Oc1cc(Br)ccc1/C=N/Nc1ccccn1`, the T/C was 90 % of control under setting [3], 96 % of control under setting [4] and 101 % of control under setting [5].
Turning to `Cc1cnc2c(N)nn(-c3ccccc3)c2n1`, the T/C runs as follows: under setting [1], 95 % of control; under setting [2], 105 % of control.
Turning to `NNC(=O)CS(=O)(=O)Nc1ncccn1`, the T/C reads like this: under setting [6], 100 % of control; under setting [7], 100 % of control; under setting [8], 100 % of control.
For `C=CCOP1(OCC=C)=NP(OCC=C)(OCC=C)=NP(OCC=C)(OCC=C)=N1`, the T/C is 96 % of control under setting [9], 100 % of control under setting [10] and 102 % of control under setting [11].
In the case of `COc1cc2cccc(OC)c(=O)c2c(OC)c1OC`, the T/C under setting [6] was 92 % of control, the T/C under setting [7] was 100 % of control and the T/C under setting [8] is 90 % of control.
As for `COC(=O)c1c(C)oc2ccccc2c1=O`, the T/C by setting is: under setting [6], 101 % of control; under setting [7], 103 % of control; under setting [8], 103 % of control.
In the case of `COc1c(Br)cc(/C=C(/C)[N+](=O)[O-])cc1Br`, the T/C is, setting by setting: (dose: 25.0 mg/kg/injection, schedule: Q04DX003 (ip), vehicle: saline with Tween-80) 112 % of control; (dose: 50.0 mg/kg/injection, schedule: Q04DX003 (ip), vehicle: saline with Tween-80) 106 % of control; under setting [1], 122 % of control.
Consider `CC(=O)N1C=Cc2ccccc2C1(Br)C1(Br)c2ccccc2C=CN1C(C)=O` (stereo not given), for which the T/C runs as follows: (dose: 25.0 mg/kg/injection, schedule: Q01DX005 (ip), vehicle: saline with Tween-80) 97 % of control; under setting [9], 99 % of control; under setting [10], 89 % of control.
`O=C(CCl)NC(Cc1cccc(F)c1)C(=O)O` (stereo not given): the T/C reads like this: under setting [12], 97 % of control; under setting [13], 97 % of control; (dose: 6.25 mg/kg/injection, schedule: Q01DX009 (ip), vehicle: saline) 100 % of control and 96 % of control.
On to `Cc1ccc([N+](=O)[O-])cc1NC(=O)NNC(=O)CNC(=O)NCc1ccco1`, for which the T/C runs as follows: under setting [3], 93 % of control; under setting [4], 89 % of control; under setting [5], 89 % of control.
Regarding `O=C(COc1ccc(Cl)cc1Cl)N1CCNC1=S`, the T/C by setting is: under setting [14], 100 % of control; under setting [15], 103 % of control; under setting [16], 100 % of control.
With `COC1C(N)C(OC2C(Oc3cccc4c(O)c5c(=O)oc6ccc(C)c7c(=O)oc(c34)c5c67)OC(C)C(O)C2(C)O)OC(C)C1O` (stereo not given), the T/C reads like this: (dose: 0.63 mg/kg/injection, schedule: Q01DX009 (ip), vehicle: other) 183 % of control; (dose: 1.25 mg/kg/injection, schedule: Q01DX009 (ip), vehicle: other) 198 % of control; (dose: 2.5 mg/kg/injection, schedule: Q01DX009 (ip), vehicle: other) 202 % of control; (dose: 5.0 mg/kg/injection, schedule: Q01DX009 (ip), vehicle: other) 276 % of control.
As to `C=CCOC(=O)C1CC2OC2CC1C` (stereo not given), the T/C (dose: 75.0 mg/kg/injection, schedule: Q01DX009 (ip), vehicle: saline with Tween-80) was 96 % of control; the T/C (dose: 150.0 mg/kg/injection, schedule: Q01DX009 (ip), vehicle: saline with Tween-80) is 103 % of control; the T/C (dose: 300.0 mg/kg/injection, schedule: Q01DX009 (ip), vehicle: saline with Tween-80) was 97 % of control.
With `CN1C(c2ccccc2)CC(=C(C#N)c2ccccc2)CC1c1ccccc1` (stereo not given), the T/C reads like this: (dose: 30.0 mg/kg/injection, schedule: Q01DX005 (ip), vehicle: Klucel (hydroxypropylcellulose) (HPC)) 103 % of control; under setting [17], 107 % of control; under setting [18], 93 % of control; under setting [19], 104 % of control.
With `COC(=O)C1=C(C(=O)OC)[C](C(=O)c2ccccc2)([Sn]([CH3])([CH3])[CH3])N=N1` (stereo not given), the T/C (dose: 0.78 mg/kg/injection, schedule: Q01DX009 (ip), vehicle: saline) is 92 % of control; the T/C under setting [12] is 89 % of control; the T/C under setting [13] is 93 % of control.
As to `Cc1ccc(C)c2c1C(O)(C#Cc1ccccc1)c1c(C)ccc(C)c1C2(O)C#Cc1ccccc1` (stereo not given), the T/C was 90 % of control under setting [20], 93 % of control under setting [6] and 86 % of control under setting [7].
For the compound `CCC(=O)NC`, the T/C (dose: 25.0 mg/kg/injection, schedule: Q01DX009 (ip), vehicle: saline) is 97 % of control; the T/C (dose: 50.0 mg/kg/injection, schedule: Q01DX009 (ip), vehicle: saline) was 97 % of control; the T/C (dose: 100.0 mg/kg/injection, schedule: Q01DX009 (ip), vehicle: saline) is 106 % of control; the T/C (dose: 200.0 mg/kg/injection, schedule: Q01DX009 (ip), vehicle: saline) was 107 % of control.
Take `CC(=O)OC1C(OC(=O)c2ccccc2)C=CC2OC21COC(=O)c1ccccc1` (stereo not given): the T/C is, setting by setting: (dose: 25.0 mg/kg/injection, schedule: Q01DX005 (ip), vehicle: saline + alcohol) 97 % of control; (dose: 50.0 mg/kg/injection, schedule: Q01DX005 (ip), vehicle: saline + alcohol) 105 % of control; (dose: 100.0 mg/kg/injection, schedule: Q01DX005 (ip), vehicle: saline + alcohol) 98 % of control; (dose: 200.0 mg/kg/injection, schedule: Q01DX005 (ip), vehicle: saline + alcohol) 91 % of control.
As for `C=CC(C)(C)c1ccc(O)c(CC=C(C)C)c1`, the T/C runs as follows: (dose: 12.5 mg/kg/injection, schedule: Q01DX005 (ip), vehicle: Klucel (hydroxypropylcellulose) (HPC)) 100 % of control; under setting [20], 102 % of control; under setting [6], 102 % of control.
For the compound `Nc1nc(Cl)cc2nsnc12`, the T/C by setting is: (dose: 100.0 mg/kg/injection, schedule: Q04DX002 (ip), vehicle: saline) 97 % of control; (dose: 200.0 mg/kg/injection, schedule: Q04DX002 (ip), vehicle: saline) 99 % of control; (dose: 400.0 mg/kg/injection, schedule: Q04DX002 (ip), vehicle: saline) 95 % of control.
Consider `CC1C(c2ccccc2)NC(c2ccccc2)CC1(N)C#N` (stereo not given), for which the T/C by setting is: under setting [6], 95 % of control; under setting [7], 95 % of control; under setting [8], 93 % of control.
As to `CCc1ccc2c(c1OCOC)CCC2`, the T/C (dose: 100.0 mg/kg/injection, schedule: Q04DX002 (ip), vehicle: saline with Tween-80) is 100 % of control; the T/C (dose: 200.0 mg/kg/injection, schedule: Q04DX002 (ip), vehicle: saline with Tween-80) is 100 % of control; the T/C (dose: 400.0 mg/kg/injection, schedule: Q04DX002 (ip), vehicle: saline with Tween-80) was 95 % of control.
As to `CCOC(=O)c1cn(CC)c2c(ccc3cnccc32)c1=O`, the T/C under setting [17] is 103 % of control, the T/C under setting [18] was 100 % of control and the T/C under setting [19] was 98 % of control.
Consider `Cc1s/c(=N/N=C2\C(=O)C=Cc3ccccc32)n(O)c1C`, for which the T/C reads like this: under setting [14], 99 % of control; under setting [15], 108 % of control; under setting [16], 111 % of control.
Take `COC1=CCC2=C(CC[C@H]3[C@H]2CCP3C)C1` (stereo not given in full): the T/C under setting [9] was 101 % of control, the T/C under setting [10] was 111 % of control and the T/C under setting [11] is 103 % of control.

Source of the values: PubChem BioAssay AID330 (DTP/NCI, 2004).
